From patent US20260083126A1, “ANTIMICROBIAL COMPOSITIONS” (AHV International B.V., priority 2022, published 2026)

Legend:
[1] = system: Pseudomonas aeruginosa ATCC 27853 biofilm; assay: MBEC assay (48 h biofilm, CFU log reduction); type: cell-based; settings: 20 h treatment, 0.125-1 mM tested
Protocol: (§1) For the MBEC assay (method 1.3) the solutions need to be diluted to a final concentration of 2 mM in 0.9% saline solution and then further diluted to 1 mM, 0.5 mM, 0.25 mM and 0.125 mM in saline. Those dilutions were added as treatment to the 96 well plates with the grown biofilm (see method 3) (0.5 mL needed for one strain). The dilution must stay transparent.
(§2) Frozen aliquots of Staphylococcus epidermis ATCC 35984 and Pseudomonas aeruginosa ATCC 27853 were used to inoculate 20 mL of Tryptic Soy Broth (TSB) in a 100 mL Erlenmeyer flask at 37° C. and 150 rpm and incubated overnight (Infors). The OD600 of the overnight culture was measured with a spectrophotometer (Evolution™ 201/220 UV-Visible Spectrophotometer, Thermo Fisher Scientific) and diluted to an ( ) 600 of 0.2, which resembles 10^8 CFU/mL. The cell suspension of OD600=0.2 was seeded into a U-bottom-shaped 96 well plates by pipetting 100 μL per well in column 1-11, column 12 was filled with 100 μL medium as sterility control. The 96 well plates were sealed with adhesive polyethylene film for sealing microplates and incubated for 48 h at 37° C. at static conditions. After the biofilm growth phase, 100 μL of treatment solutions (method 1) were added to the vials resulting in treatment concentrations of 1 mM, 0.5 mM, 0.25 mM and 0.125 mM and with the respective concentration of Tween 80 and DMSO each at 0.63%, 0.32%, 0.16% and 0.08%. The same concentration was applied to four different wells of the same bacterial strain, resulting in four replicates for each concentration and strain. The treatment was incubated for 20 h at 37° C. at static conditions. After the treatment the supernatant was carefully removed and the well with the biofilm washed carefully for one time with 200 μL 0.9% saline solution. 200 μL saline solution was added and the biofilm was resuspended thoroughly. When fully homogenized then 20 μl, was used for the first dilution in 180 μL 0.9% saline solution, which was prepared in a second plate. This dilution was continued until dilution step 10E-5 and 100 μL of the 10E-4 and 10E-5 dilution plated on a TSA plate. The TSA plates were incubated at 37° C. for 24 h. The colonies on the plates were enumerated, the colony forming units per ml, of the dispensed biofilm and averages thereof and the log reduction in comparison with the untreated sample from the same wells plate calculated. Reduction of colony forming units goes hand in hand with the thickness of the biofilm and thus with the number bacteria that are present in the biofilm. Therefore, a significant reduction of colony forming units in the biofilm was defined at the value of log reduction >1 or more. This assay was repeated two times in two independent experiments)

[2] = system: Staphylococcus epidermis ATCC 35984 biofilm; assay: MBEC assay (48 h biofilm, CFU log reduction); type: cell-based, Staphylococcus epidermidis; settings: 20 h treatment, 0.125-1 mM tested
Protocol: as §1, §2

[3] = system: Staphylococcus epidermidis ATCC 35984; assay: MIC assay (growth inhibition of planktonic microorganisms); type: cell-based; settings: 24 h at 37° C., MHB-II
Protocol: (§3) The exact weighed amount was noted and the volume of solvent to reach a 80 mM dilution calculated. Half of the volume was added first, by adding Tween 80 and let stand for 5 minutes. In a second step, the other half of the volume DMSO was added and resuspended to help the dilution process. The closed tube was inverted 5-10 times and then vortexed very thoroughly for at least 30 seconds. If after this procedure crystals were still visible, the tube was placed in a shaker at 37° C. at 150 rpm for at least 30 minutes (it is indicated if the dissolution period was longer than 2 h). […] In case of Bis(4-Chlorophenyl) thiosulfonate, a lower concentrated stock solution of 2 mM needed to be prepared. For that, the required amount of compound was weighed in and 2% v/v Tween80 and 2% v/v DMSO of the end volume of the stock solution was added to the substance. This mix was heated in a water bath set to 40° C. and occasionally shaken. When the whole amount of the substance reached dissolution, the volume was filled up with growth medium until the end volume. This 2 mM stock solution of Bis(4-Chlorophenyl) thiosulfonate was used in the MIC plate and diluted two-fold, resulting in a testing range of Bis(4-Chlorophenyl) thiosulfonate from 1 mM to 0.002 mM.
(§4) The microorganisms as indicated in Table 4 were used to inoculate a tryptic soy agar (TSA) plate and incubated overnight at 37° C. After incubation 3-5 well-isolated colonies with the same morphology were selected from the TSA plate and resuspended in 2 mL 0.9% saline solution with 3-6 glass beads and vortexed. The optical density at 600 nm (OD600) of the bacterial suspension was measured with a spectrophotometer (Evolution™ 201/220 UV-Visible Spectrophotometer, Thermo Fisher Scientific) and diluted to an OD600 of 0.0008, which resembles 10^6 CFU/mL.
(§5) The MIC assay was performed in a flat-bottom 96-microtiter plate. 50 μL of MHB-II was added into columns 2-11, and 100 μL to column 12 for sterility control. 100 μL of the 8 mM test compound solution (method 1) was added to column 1. A two-fold dilution series of the solution in MHB-II was achieved by resuspending 50 μL of the 8 mM solution from column 1 to column 2. This step was repeated until column 10. The respective concentration of Tween 80 and DMSO in column 1 was 2.5%, which is two-fold diluted throughout the plate. 50 μL of the bacterial suspension was added to column 1-11. The microtiter plates were sealed with adhesive polyethylene film for sealing microplates (Diversified Biotech) and incubated for 24 h at 37° C. After incubation the OD was measured at 600 nm with the Varioskan (Thermo Fisher Scientific). The minimal concentration which causes reduction of final OD600 of the bacterial culture by 50% (MIC50) and by 90% (MIC90) was calculated after normalization of the obtained OD values to the growth control in column 11. This assay was repeated three times in three independent experiments.

[4] = system: Pseudomonas aeruginosa ATCC 27853; assay: as above; type: cell-based; settings: 24 h at 37° C., MHB-II
Protocol: as §3, §4, §5
Hereafter, the stock solutions of the compounds were used in three repetitions in a minimal inhibitory concentration (MIC) assay at a 2-fold dilution range with various bacteria from the gram-positive and gram-negative group and a yeast, Candida albicans. The concentrations that show only less than 10% growth after 24 h were considered the MIC90-values, whereas the concentrations that show 50% growth after 24 h when compared to the bacterial growth control were considered the MIC50-values. Escherichia coli and Staphylococcus aureus were used as representatives for a gram-negative bacteria and gram-positive bacteria, respectively. Furthermore, the yeast C. albicans was also tested.
In an Eppendorf tube between 10-20 mg of the test compound was weighed. Hereafter, the required amount of Tween 80 was added, followed by the amount DMSO. After vigorous shaking, the dissolved and transparent dilutions were diluted 10 times with Mueller Hinton Broth (MHB) for the MIC assay. […]

[5] = system: Staphylococcus aureus LUH14616; assay: Resistance development on repeated exposure (19 passages); type: cell-based
Protocol: Experimental design. Potential resistance to AM-8 was assessed as described by Habets and Brockhurst (2012) (Therapeutic antimicrobial peptides may compromise natural immunity. Biol Lett 8:416-418). Briefly, log phase bacteria (S. aureus LUH 14616) were diluted in RPMI-mod to a concentration of 2×10^6 CFU/ml. Next, 50 μl of this bacterial suspension were mixed with 50 μl of a range of dilutions of AM-8 or—as comparator-rifampicin in v-bottom 96-wells plates. Thereafter, the plates were covered with a plastic seal and incubated for 24 hrs at 37° C. in a shaking incubator (200 rpm). The plates were then centrifuged for 5 min at 2,000 rpm and the growth inhibition was determined. To start the resistance development testing, 100 μl of a mid-log bacterial suspension containing 2×10^6 CFU/ml were mixed with 150 μl of RPMI-mod and 5 μl of this diluted bacterial suspension were applied to v-bottom wells containing a dilution range of AM-8 or antibiotics (various concentrations below and above MIC) in RPMI-mod (RPMI 1640 modified with 20 mM Hepes and L-glutamine and without sodium bicarbonate (Sigma-Aldrich); further referred to as RPMI-mod). After 24 hrs at 37° C. in a shaking incubator (200 rpm) the growth inhibition was determined. 100 μl of the bacterial suspension from the 0.5×MIC wells were mixed with 150 μl of RPMI-mod and 5 μl of the diluted bacterial suspension were used to inoculate a new 96-wells plate containing a dilution series of AM-8 or rifampicin, and these mixtures were then incubated as described above. If resistance developed, the concentration range of AM-8 and/or antibiotic was adjusted accordingly. This was repeated 19 times. Results are expressed as the fold-increase in MIC compared to the MIC at the start of the experiment.

[6] = reduction of final OD600 by 50%
[7] = reduction of final OD600 by 90%

| SMILES | P. aeruginosa MBEC mM with log reduction ≥1 [1] [mM] | S. epidermidis MBEC mM with log reduction ≥1 [2] [mM] | S. epidermidis MIC50 [3, 6] [µM] | S. epidermidis MIC90 [3, 7] [µM] | P. aeruginosa MIC50 [4, 6] [µM] | P. aeruginosa MIC90 [4, 7] [µM] | fold-increase in MIC compared to the MIC at the start ([5]; after passage 10) [fold] | fold-increase in MIC compared to the MIC at the start ([5]; after the last passage) [fold] | fold-increase in MIC compared to the MIC at the start ([5]; at passages 4-5) [fold] | MIC50 ([3]; Staphylococcus epidermidis, ATCC35984, reduction of final OD600 by 50%, read-out: S. epidermidis MIC50) [µM] | MIC90 ([3]; Staphylococcus epidermidis, ATCC35984, reduction of final OD600 by 90%, read-out: S. epidermidis MIC90) [µM] | MIC50 ([4]; Pseudomonas aeruginosa, ATCC27853, 24 h, reduction of final OD600 by 50%, read-out: P. aeruginosa MIC50) [µM] | MIC90 ([4]; Pseudomonas aeruginosa, ATCC27853, reduction of final OD600 by 90%, read-out: P. aeruginosa MIC90) [µM] |
| --- | --- | --- | --- | --- | --- | --- | --- | --- | --- | --- | --- | --- | --- |
| [O-][S+](Sc1ccc(Cl)cc1)c1ccc(Cl)cc1 (stereo not drawn) [Bis (4-chlorophenyl) thiosulfinate, Bis(4-chlorophenyl) thiosulfinate] | >1 | >1 | 20 | 20 | 20 | 20 |  |  |  |  |  |  |  |
| CO[C@H]1/C=C/O[C@@]2(C)Oc3c(C)c(O)c4c(O)c(c(/C=N/N5CCN(C)CC5)c(O)c4c3C2=O)NC(=O)/C(C)=C\C=C\[C@H](C)[C@H](O)[C@@H](C)[C@@H](O)[C@@H](C)[C@H](OC(C)=O)[C@@H]1C [rifampicin, reference compound] |  |  |  |  |  |  | 146 | > 292 | 10 |  |  |  |  |
| CC(C)SSC(C)C [Di-isopropyl disulfide, reference compound] | >1 | >1 |  |  |  |  |  |  |  | > 4000 | > 4000 | > 4000 | > 4000 |
